The values that follow come from PMC9124818 (Pharmacology Research & Perspectives, 2022).

Read-outs that look alike come from different tables or passages of the source.

Series [1] has as its target T1, P‐gp (Homo sapiens, UniProt P08183).
T1 construct: host or cells: Caco-2
The experiment in a line: Transporter inhibition, bidirectional permeability of digoxin in Caco-2 cells. It counts as in vitro ADME. The protocol:
(§1) The test compound (FFA or nFFA) or the positive control substrate ([…], respectively) was added to the donor chamber. […] Cells were then washed, lysed with scintillation cocktail, and analyzed for the probe substrate with a MicroBeta scintillation counter (PerkinElmer, Hopkinton, MA). Transcellular transporter assay conditions are described in Supplemental Table 1. Calculation of IC50 values was based on bidirectional permeability of probe substrate with and without the inhibitor in MDCKII cells expressing BCRP and in Caco‐2 cells expressing P‐gp, and transporter‐dependent uptake of probe substrate in HEK293 cells expressing all other transporters (Supplemental Table 1).
(§2) The net flux for human epithelial colorectal adenocarcinoma cells (Caco-2; P-gp) and MDCKII-BCRP inhibition determination was calculated according to the equation: […]

Series [2] concerns the target T2, BCRP (Homo sapiens, UniProt Q9UNQ0).
T2 construct: host or cells: MDCKII
T2 sequence (Q9UNQ0 1-655): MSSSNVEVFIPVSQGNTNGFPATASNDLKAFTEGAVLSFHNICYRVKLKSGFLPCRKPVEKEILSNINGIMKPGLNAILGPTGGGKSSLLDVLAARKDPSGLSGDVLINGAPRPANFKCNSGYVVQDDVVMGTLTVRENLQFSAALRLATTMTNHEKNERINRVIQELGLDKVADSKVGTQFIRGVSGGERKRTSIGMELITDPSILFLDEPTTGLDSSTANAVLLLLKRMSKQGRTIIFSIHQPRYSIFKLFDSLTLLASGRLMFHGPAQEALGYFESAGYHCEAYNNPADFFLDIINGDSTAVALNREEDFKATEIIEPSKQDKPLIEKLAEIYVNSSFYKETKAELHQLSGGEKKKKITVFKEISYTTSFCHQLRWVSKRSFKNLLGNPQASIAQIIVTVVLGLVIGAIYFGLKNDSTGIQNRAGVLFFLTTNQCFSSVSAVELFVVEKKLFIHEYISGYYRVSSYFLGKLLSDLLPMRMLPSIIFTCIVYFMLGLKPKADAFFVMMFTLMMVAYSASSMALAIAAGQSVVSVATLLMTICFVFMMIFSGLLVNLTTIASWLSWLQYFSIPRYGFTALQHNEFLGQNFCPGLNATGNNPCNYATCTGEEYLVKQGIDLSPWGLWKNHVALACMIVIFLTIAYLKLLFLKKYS
In words: Transporter inhibition, bidirectional permeability of prazosin in MDCKII-BCRP cells. It counts as in vitro ADME. On the procedure:
as §1, §2

The nature of series [3]: Pharmacokinetic input parameters of the mechanistic static model (population pharmacokinetics). To be noted: for Portal inlet [I]h: calculated as (Imax + (Fa × Fg × ka × molar dose) / Qh) / Rb; for Cmax, unbound: calculated as Cmax, total (ng/mL)/MW * fu.
Series [4] concerns CYP1A2 mRNA. In words: CYP450 induction in cultured human hepatocytes, mRNA by qRT-PCR. It counts as cell-based. To be noted: for Fold‐change method: Fold change: highest dose tested (40 µM fenfluramine, 50 µM norfenfluramine); for Fold‐change method: % of control: percent of positive control induction of mRNA. The protocol: Each PCR was performed in triplicate.
In series [5] the target is T3, OAT3 (Homo sapiens, UniProt Q8TCC7).
T3 construct: host or cells: HEK293
T3 sequence (Q8TCC7 1-542): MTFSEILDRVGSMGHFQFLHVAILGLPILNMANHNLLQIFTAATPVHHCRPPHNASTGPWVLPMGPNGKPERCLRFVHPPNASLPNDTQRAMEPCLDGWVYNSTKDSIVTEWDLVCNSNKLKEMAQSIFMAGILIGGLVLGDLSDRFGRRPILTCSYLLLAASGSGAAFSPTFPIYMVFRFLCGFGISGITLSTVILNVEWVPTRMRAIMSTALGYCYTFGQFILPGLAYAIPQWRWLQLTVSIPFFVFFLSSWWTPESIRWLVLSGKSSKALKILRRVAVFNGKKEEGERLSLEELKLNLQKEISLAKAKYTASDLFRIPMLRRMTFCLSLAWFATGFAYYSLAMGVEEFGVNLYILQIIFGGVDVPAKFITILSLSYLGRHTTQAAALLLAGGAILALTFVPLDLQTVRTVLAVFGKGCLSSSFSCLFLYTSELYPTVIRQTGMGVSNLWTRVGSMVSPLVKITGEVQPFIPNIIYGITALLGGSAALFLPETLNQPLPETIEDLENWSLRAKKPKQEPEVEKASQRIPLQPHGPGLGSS
The experiment in a line: Transporter inhibition, uptake of [3H]-estrone-3-sulfate in HEK293 cells. It counts as in vitro ADME. The protocol:
as §1
The transporter-specific uptake of the probe substrate in cells was determined by subtracting the accumulation in the control cells from the accumulation in the transporter-expressing cells.

The target of series [6] is T4, CYP2B6 (Homo sapiens, UniProt P20813).
T4 sequence (P20813 1-491): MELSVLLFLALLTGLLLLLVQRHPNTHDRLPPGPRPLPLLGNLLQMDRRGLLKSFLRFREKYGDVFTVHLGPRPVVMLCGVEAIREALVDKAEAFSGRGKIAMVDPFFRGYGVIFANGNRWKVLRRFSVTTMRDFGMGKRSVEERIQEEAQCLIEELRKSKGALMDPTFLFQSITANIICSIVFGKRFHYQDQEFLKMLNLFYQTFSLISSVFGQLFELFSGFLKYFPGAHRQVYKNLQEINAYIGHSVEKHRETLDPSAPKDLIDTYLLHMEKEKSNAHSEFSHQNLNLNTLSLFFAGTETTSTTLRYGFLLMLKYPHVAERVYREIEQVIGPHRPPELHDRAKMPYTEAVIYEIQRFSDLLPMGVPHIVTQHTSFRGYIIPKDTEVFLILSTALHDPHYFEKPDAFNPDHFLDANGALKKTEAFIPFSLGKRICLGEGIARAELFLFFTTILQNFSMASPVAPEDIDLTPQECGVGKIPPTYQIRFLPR
In words: Direct CYP450 inhibition in human liver microsomes (efavirenz 8-hydroxylation). Conditions: for Inhibition (%): FFA up to 60 µM, nFFA up to 100 µM; for Basic model: R1: R1 = 1 + (Imax,u/Ki,u).
Excerpt: A mixed‐gender pool of 200 individual human liver microsomal samples was used.
This LIMS utilizes the Levenberg-Marquardt algorithm to perform nonlinear regression fitting of the data to the following 4-parameter sigmoidal-logistic IC50 equation:
As percent of control values are utilized, the Min is set to 0 and the Max is set to 100 (or other values, as appropriate). […] Therefore, when an IC50 value falls outside the concentration range studied, the IC50 values are reported to be greater than the highest concentrations of test article evaluated.

Series [7] has as its target CYP2D6 (Homo sapiens, UniProt P10635). The experiment in a line: Time- and metabolism-dependent inhibition, 30-min preincubation with or without NADPH (dextromethorphan O-demethylation). Conditions: for IC50: human liver microsomes; for inhibition at 30 min: both, human, pooled human liver microsomes, pH 7.4, probe dextromethorphan (O-demethylation).
Description: These preincubations allowed assessment of the NADPH‐dependence of any time‐dependent CYP450 inhibition. Following the 30‐min preincubation, the NADPH‐generating system and/or marker substrate was added, and incubations were continued as described previously to measure residual CYP450 enzyme activity.
The mark [8] stands for this setting: all three hepatocyte cultures, FFA up to 40 μM, nFFA 50 μM.
Setting [9] is: direct inhibition, substrate efavirenz.

CYP2D6, sequence (P10635 whole entry): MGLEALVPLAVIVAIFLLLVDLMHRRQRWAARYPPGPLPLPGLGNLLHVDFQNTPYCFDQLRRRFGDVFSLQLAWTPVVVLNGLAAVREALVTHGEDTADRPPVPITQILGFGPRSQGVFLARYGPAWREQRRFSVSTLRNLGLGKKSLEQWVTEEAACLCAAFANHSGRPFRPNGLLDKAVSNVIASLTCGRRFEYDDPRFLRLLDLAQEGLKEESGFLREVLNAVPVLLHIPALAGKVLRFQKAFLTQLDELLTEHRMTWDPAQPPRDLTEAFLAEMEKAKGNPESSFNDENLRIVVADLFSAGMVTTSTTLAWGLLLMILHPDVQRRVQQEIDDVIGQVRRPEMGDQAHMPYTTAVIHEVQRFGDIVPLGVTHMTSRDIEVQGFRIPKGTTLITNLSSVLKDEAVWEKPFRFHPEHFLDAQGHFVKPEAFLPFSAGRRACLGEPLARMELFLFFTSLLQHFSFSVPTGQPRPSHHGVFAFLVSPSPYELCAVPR
T1 sequence (P08183 whole entry): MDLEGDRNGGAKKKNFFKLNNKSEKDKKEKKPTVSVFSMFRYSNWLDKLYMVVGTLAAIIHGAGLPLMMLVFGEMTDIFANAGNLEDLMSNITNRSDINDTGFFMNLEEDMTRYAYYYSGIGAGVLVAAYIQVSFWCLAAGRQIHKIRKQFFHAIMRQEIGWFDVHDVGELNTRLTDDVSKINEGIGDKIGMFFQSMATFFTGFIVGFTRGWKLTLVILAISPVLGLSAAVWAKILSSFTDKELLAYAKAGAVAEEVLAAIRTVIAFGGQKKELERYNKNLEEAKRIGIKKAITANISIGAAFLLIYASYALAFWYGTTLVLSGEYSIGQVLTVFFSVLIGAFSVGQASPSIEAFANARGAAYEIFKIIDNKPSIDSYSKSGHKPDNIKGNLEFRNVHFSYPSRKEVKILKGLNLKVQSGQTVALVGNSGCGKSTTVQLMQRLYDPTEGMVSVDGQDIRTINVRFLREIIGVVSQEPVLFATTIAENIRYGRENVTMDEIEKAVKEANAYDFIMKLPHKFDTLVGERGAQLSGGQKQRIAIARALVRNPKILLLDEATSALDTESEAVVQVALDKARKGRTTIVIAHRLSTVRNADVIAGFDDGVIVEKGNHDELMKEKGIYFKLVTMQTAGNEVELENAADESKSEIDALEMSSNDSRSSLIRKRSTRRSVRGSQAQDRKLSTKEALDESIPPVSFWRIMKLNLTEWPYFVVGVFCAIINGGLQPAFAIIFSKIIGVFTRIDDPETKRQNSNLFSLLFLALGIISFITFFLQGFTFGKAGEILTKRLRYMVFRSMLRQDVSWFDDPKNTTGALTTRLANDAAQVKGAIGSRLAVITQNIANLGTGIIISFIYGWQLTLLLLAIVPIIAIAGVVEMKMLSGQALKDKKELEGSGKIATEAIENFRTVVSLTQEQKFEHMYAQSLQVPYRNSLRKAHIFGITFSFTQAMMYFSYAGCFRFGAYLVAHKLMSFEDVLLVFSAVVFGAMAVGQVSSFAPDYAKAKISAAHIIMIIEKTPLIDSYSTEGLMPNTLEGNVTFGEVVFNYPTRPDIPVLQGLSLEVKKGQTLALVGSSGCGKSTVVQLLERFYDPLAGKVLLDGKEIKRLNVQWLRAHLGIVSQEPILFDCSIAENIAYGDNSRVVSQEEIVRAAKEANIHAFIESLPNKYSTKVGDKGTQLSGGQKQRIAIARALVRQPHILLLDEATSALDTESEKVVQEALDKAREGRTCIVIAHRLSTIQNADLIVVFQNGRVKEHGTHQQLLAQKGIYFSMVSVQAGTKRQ

As to `CC(N)Cc1cccc(C(F)(F)F)c1.Cl` (stereo not shown) [nFFA, [1‐(3‐trifluoromethyl)phenyl]propan‐2‐amine hydrochloride], the IC50 was over 50 µM in series [1] (Caco-2, probe digoxin 10 µM, read-out: IC50); over 50 µM in series [2] (MDCKII, probe prazosin 1 µM, read-out: IC50); over 50 µM in series [5] (HEK293, probe [3H]-estrone-3-sulfate 50 nM, read-out: IC50); over 100 µM in series [6] (direct inhibition, human liver microsomes, substrate efavirenz); 17 ± 1 µM in series [7] (read-out: IC50 (+ NADPH), 30-min preincubation in the presence of NADPH); 15 ± 1 µM in series [7] (read-out: IC50 (- NADPH), 30-min preincubation in the absence of NADPH). For the same compound, in series [3], the “Portal inlet [I]h” value is 0.094 µM. Besides, in series [3], the “Cmax, unbound” value is 94 nM. Further, the “% as effective as the positive control, omeprazole (CYP1A2 mRNA)” value in series [4] (setting [8]) is listed as under 20%. For the same compound, the “fold change in CYP1A2 mRNA levels” value in series [4] (setting [8]) is reported as under 2 fold. Moreover, the “Fold‐change method: Potential to induce” value in series [4] (hepatocytes HC7‐8), in series [4] (hepatocytes HC10‐8) and in series [4] (hepatocytes HC10‐10) was “No” throughout. Moreover, the results for the “Fold‐change method: Fold change” value in series [4] (hepatocytes HC7‐8), in series [4] (hepatocytes HC10‐8) and in series [4] (hepatocytes HC10‐10) were 1.74 fold, 1.92 fold and 1.86 fold, respectively. Also, the “Fold‐change method: % of control” value in series [4] (hepatocytes HC7‐8) is given as 2.35%; in series [4] (hepatocytes HC10‐8) it was 1.79%; in series [4] (hepatocytes HC10‐10) it was 1.96%. For the same compound, in series [6] (setting [9]), the “Inhibition (%)” value worked out at 23%. For the same compound, the “Basic model: Potential for clinical inhibition” value in series [6] (substrate efavirenz) is recorded as “No (Potential to inhibit if R1 ≥ 1.02)”. In addition, the “Static mechanistic model: Potential for clinical inhibition” value in series [6] (substrate efavirenz) is “No (Potential to inhibit if AUCR ≥ 1.25)”. Moreover, the “Basic model: R1” value in series [6] (substrate efavirenz) amounted to 1.00. Besides, in series [7] (30-min preincubation in the absence of NADPH), the “% inhibition (- NADPH)” value is listed as 82%. Also, in series [7] (30-min preincubation in the presence of NADPH), the “% inhibition (+ NADPH)” value came out at 80%.

Take `CCNC(C)Cc1cccc(C(F)(F)F)c1` (racemic) [FFA, (RS)‐ethyl(α‐methyl‐3‐trifluoromethylphenethyl)amine, reference compound]: the IC50 in series [1] is over 100 µM; in series [2], over 100 µM; in series [5], over 30 µM; in series [6], over 60 µM; in series [7] (IC50 (+ NADPH), 30-min preincubation in the presence of NADPH) it was 10 µM; in series [7] (IC50 (- NADPH), 30-min preincubation in the absence of NADPH), 4.5 µM. Besides, the “Portal inlet [I]h” value in series [3] was 0.362 µM. In series [3], the “Cmax, unbound” value is 162 nM. The “% as effective as the positive control, omeprazole (CYP1A2 mRNA)” value in series [4] (setting [8]) is listed as under 20%. Moreover, the “Inhibition (%)” value in series [6] (setting [9]) was determined as 6.1%. Moreover, the “Basic model: Potential for clinical inhibition” value in series [6] (substrate efavirenz) is given as “No (Potential to inhibit if R1 ≥ 1.02)”. For the same compound, the “Static mechanistic model: Potential for clinical inhibition” value in series [6] (substrate efavirenz) is “No (Potential to inhibit if AUCR ≥ 1.25)”. The “Basic model: R1” value in series [6] (substrate efavirenz) was 1.01. The inhibition at 30 min in series [7] (% inhibition (+ NADPH), 30-min preincubation in the presence of NADPH) is 82%; in series [7] (% inhibition (- NADPH), 30-min preincubation in the absence of NADPH), 89%.
